Read-outs that look alike come from different tables or passages of the source.
How the values were obtained:
CD69 = assay: Induction of CD69 in human whole blood; type: cell-based
Method: The induction of Type I interferon (IFN) MX-1 genes and the B-cell activation marker CD69 are downstream events that occur upon activation of the TLR7 pathway. The following is a human whole blood assay that measures their induction in response to a TLR7 agonist.
Heparinized human whole blood was harvested from human subjects and treated with test TLR7 agonist compounds at 1 mM. The blood was diluted with RPMI 1640 media and Echo was used to predot 10 nL per well giving a final concentration of 1 uM (10 nL in 10 uL of blood). After mixing on a shaker for 30 sec, the plates were covered and placed in a 37° C. chamber for o/n=17 hrs. Fixing/lysis buffer was prepared (5×->1× in H2O, warm at 37° C.; Cat #BD 558049) and kept the perm buffer (on ice) for later use.
For surface markers staining (CD69): prepared surface Abs: 0.045 ul hCD14-FITC (ThermoFisher Cat #MHCD1401)+0.6 ul hCD19-ef450 (ThermoFisher Cat #48-0198-42)+1.5 ul hCD69-PE (cat #BD555531)+0.855 ul FACS buffer. Added 3 ul/well, spin1000 rpm for 1 min and mixed on shaker for 30 sec, put on ice for 30 mins. Stop stimulation after 30 min with 70 uL of prewarmed 1× fix/lysis buffer and use Feliex mate to resuspend (15 times, change tips for each plate) and incubate at 37 C for 10 min.
Centrifuge at 2000 rpm for 5 min aspirate with HCS plate washer, mix on shaker for 30 sec and then wash with 70 uL in dPBS and pelleted 2×s (2000 rpm for 5 min) and 50 ul wash in FACS buffer pelleted 1×s (2000 rpm for 5 min). Mix on shaker for 30 sec. For Intracellular markers staining (MX-1): Add 50 ul of BD Perm buffer III and mix on shaker for 30 sec. Incubate on ice for 30 minutes (in the dark). Wash with 50 uL of FACS buffer 2× (spin @2300 rpm×5 min after perm) followed by mixing on shaker for 30 sec. Resuspended in 20 ul of FACS buffer containing MX1 antibody ( )(4812)-Alexa 647: Novus Biologicals #NBP2-43704AF647) 20 ul FACS bf+0.8 ul hlgG+0.04 ul MX-1. Spin 1000 rpm for 1 min, mix on shaker for 30se and the samples were incubated at RT in the dark for 45 minutes followed by washing 2×FACS buffer (spin @2300 rpm×5 min after perm). Resuspend 20 ul (35 uL total per well) of FACS buffer and cover with foil and place in 4° C. to read the following day. Plates were read on iQuePlus. The results were loaded into toolset and […] curves are generated in curve master. The y-axis 100% is set to 1 uM of resiquimod.

human TLR7 = target: T1, human TLR7 (Homo sapiens, UniProt Q9NYK1); assay: Human TLR7 agonist activity assay (HEK-Blue TLR7 SEAP reporter); type: cell-based; settings: HEK-Blue TLR7 cells, 18 h treatment, average where assay was performed multiple times, read-out: hTLR7 Agonism EC50
T1 construct: host or cells: HEK-Blue TLR7 cells (engineered human embryonic kidney cells)
T1 sequence (Q9NYK1 27-1049): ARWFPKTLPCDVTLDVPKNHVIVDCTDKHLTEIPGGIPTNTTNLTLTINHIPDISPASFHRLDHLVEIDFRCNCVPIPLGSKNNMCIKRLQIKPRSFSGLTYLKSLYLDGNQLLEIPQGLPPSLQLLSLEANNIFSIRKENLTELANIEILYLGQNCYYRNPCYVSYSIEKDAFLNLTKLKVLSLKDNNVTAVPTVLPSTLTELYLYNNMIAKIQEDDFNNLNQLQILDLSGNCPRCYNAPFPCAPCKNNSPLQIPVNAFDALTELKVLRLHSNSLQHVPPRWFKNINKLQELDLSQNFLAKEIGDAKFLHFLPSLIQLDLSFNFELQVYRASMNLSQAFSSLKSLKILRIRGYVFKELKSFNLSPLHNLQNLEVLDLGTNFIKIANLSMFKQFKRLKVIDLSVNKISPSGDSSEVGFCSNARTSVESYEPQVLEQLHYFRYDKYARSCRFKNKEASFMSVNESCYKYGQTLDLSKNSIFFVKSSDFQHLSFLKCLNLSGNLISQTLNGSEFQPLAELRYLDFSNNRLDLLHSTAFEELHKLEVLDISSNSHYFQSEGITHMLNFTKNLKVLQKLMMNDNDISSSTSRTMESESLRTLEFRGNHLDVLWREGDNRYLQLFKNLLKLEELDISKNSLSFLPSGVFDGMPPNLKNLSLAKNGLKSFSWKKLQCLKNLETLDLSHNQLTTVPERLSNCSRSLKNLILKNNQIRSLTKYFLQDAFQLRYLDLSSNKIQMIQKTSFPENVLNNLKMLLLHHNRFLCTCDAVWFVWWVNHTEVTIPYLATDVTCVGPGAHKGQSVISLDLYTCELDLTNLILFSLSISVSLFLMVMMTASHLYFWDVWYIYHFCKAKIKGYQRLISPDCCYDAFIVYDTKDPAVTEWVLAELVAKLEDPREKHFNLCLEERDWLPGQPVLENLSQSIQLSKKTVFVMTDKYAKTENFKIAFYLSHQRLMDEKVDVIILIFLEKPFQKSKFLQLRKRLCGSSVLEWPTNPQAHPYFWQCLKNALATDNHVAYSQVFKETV
Method: This procedure describes a method for assaying human TLR7 (hTLR7) agonist activity of the compounds disclosed in this specification.
HEK-Blue™ TLR7 cells were added to each well of a 384-well tissue-culture plate (15,000 cells per well) and incubated 16-18 h at 37° C., 5% CO2. Compounds (100 nl) were dispensed into wells containing the HEK-Blue™ TLR cells and the treated cells were incubated at 37° C., 5% CO2. After 18 h treatment ten microliters of freshly-prepared Quanti-Blue™ reagent (Invivogen) was added to each well, incubated for 30 min (37° C., 5% CO2) and SEAP levels measured using an Envision plate reader (OD=620 nm).

[1] = Homo sapiens, 17 h, read-out: hWB CD69 EC50 (nM)
[2] = human whole blood, 17 hrs, CD69 surface staining, 100% set to 1 uM of resiquimod, average where assay was performed multiple times, read-out: hWB CD69 EC50

| SMILES | EC50 (CD69; [1]) | EC50 (human TLR7) | EC50 (CD69; [2]) |
| --- | --- | --- | --- |
| CCCCNc1nc(N)nc2cnn(Cc3ccc(C(=O)NC4CCN(C)CC4)cc3OC3CC3)c12 [Compound 121, 4-{[5-amino-7-(butylamino)-1H-pyrazolo[4,3-d]pyrimidin-1-yl]methyl}-3-cyclopropoxy-N-(1-methylpiperidin-4-yl)benzamide] | 99.1 nM | 502 nM |  |
| CCCCNc1nc(N)nc2cnn(Cc3ccc(C(=O)N4CCN(CCO)CC4)cc3OC3CC3)c12 [Compound 122, 2-[4-(4-{[5-amino-7-(butylamino)-1H-pyrazolo[4,3-d]pyrimidin-1-yl]methyl}-3-cyclopropoxybenzoyl)piperazin-1-yl]ethan-1-ol] |  | 1190 nM | 340 nM |
| CCC[C@@H](CCO)Nc1nc(N)nc2cnn(Cc3ccc(C(=O)N4CCN(CCO)CC4)cc3OC)c12 [Compound 123, (3S)-3-{[5-amino-1-({4-[4-(2-hydroxyethyl)piperazine-1-carbonyl]-2-methoxyphenyl}methyl)-1H-pyrazolo[4,3-d]pyrimidin-7-yl]amino}hexan-1-ol] |  | 115 nM | 71.9 nM |
| CCC1CC(CNc2nc(N)nc3cnn(Cc4ccc(C(=O)NC5CCN(C)CC5)cc4OC)c23)C1 (centres unmarked) [Compound 124, 4-[(5-amino-7-{[(3-ethylcyclobutyl)methyl]amino}-1H-pyrazolo[4,3-d]pyrimidin-1-yl)methyl]-3-methoxy-N-(1-methylpiperidin-4-yl)benzamide] | 95.4 nM | 508 nM |  |
| CCC[C@@H](CCO)Nc1nc(N)nc2cnn(Cc3ccc(C(=O)NC4CCN(C)CC4)cc3OC)c12 [Compound 125, 4-[(5-amino-7-{[(3S)-1-hydroxyhexan-3-yl]amino}-1H-pyrazolo[4,3-d]pyrimidin-1-yl)methyl]-3-methoxy-N-(1-methylpiperidin-4-yl)benzamide] | 332 nM | 747 nM |  |
| CCC[C@@H](CO)Nc1nc(N)nc2cnn(Cc3ccc(C(=O)NC4CCN(C)CC4)cc3OC)c12 [Compound 126, 4-[(5-amino-7-{[(2S)-1-hydroxypentan-2-yl]amino}-1H-pyrazolo[4,3-d]pyrimidin-1-yl)methyl]-3-methoxy-N-(1-methylpiperidin-4-yl)benzamide] | 326 nM | 5000 nM |  |
| COc1cc(C(=O)N2CCN(CCO)CC2)ccc1Cn1ncc2nc(N)nc(NCc3cc(C)on3)c21 [Compound 127, 2-(4-{4-[(5-amino-7-{[(5-methyl-1,2-oxazo1-3-yl)methyl]amino}-1H-pyrazolo[4,3-d]pyrimidin-1-yl)methyl]-3-methoxybenzoyl}piperazin-1-yl)ethan-1-ol] |  | 505 nM | 173 nM |
| CCC[C@@H](CCO)Nc1nc(N)nc2c(F)nn(Cc3ccc(C(=O)NC4CCN(C)CC4)cc3OC)c12 [Compound 128, 4-[(5-amino-3-fluoro-7-{[(3S)-1-hydroxyhexan-3-yl]amino}-1H-pyrazolo[4,3-d]pyrimidin-1-yl)methyl]-3-methoxy-N-(1-methylpiperidin-4-yl)benzamide] | 772 nM | 179 nM |  |
| COc1cc(C(=O)NC2CCN(C)CC2)ccc1Cn1ncc2nc(N)nc(NCc3cc(C)on3)c21 [Compound 129, 4-[(5-amino-7-{[(5-methyl-1,2-oxazo1-3-yl)methyl]amino}-1H-pyrazolo[4,3-d]pyrimidin-1-yl)methyl]-3-methoxy-N-(1-methylpiperidin-4-yl)benzamide] | 67.7 nM | 1240 nM |  |
| COc1cc(C(=O)N2CCN(C)CC2)ccc1Cn1ncc2nc(N)nc(NCc3cc(C)on3)c21 [Compound 130, 1-{[2-methoxy-4-(4-methylpiperazine-1-carbonyl)phenyl]methyl}-N7-[(5-methyl-1,2-oxazo1-3-yl)methyl]-1H-pyrazolo[4,3-d]pyrimidine-5,7-diamine] |  | 145 nM | 15.8 nM |
| COc1cc(C(=O)N2CCNC(=O)C2)ccc1Cn1ncc2nc(N)nc(NCc3cc(C)on3)c21 [Compound 131, 4-{4-[(5-amino-7-{[(5-methyl-1,2-oxazo1-3-yl)methyl]amino}-1H-pyrazolo[4,3-d]pyrimidin-1-yl)methyl]-3-methoxybenzoyl}piperazin-2-one] |  | 2190 nM | 363 nM |
| COc1cc(C(=O)N2CCN(C)CC2)ccc1Cn1ncc2nc(N)nc(NCc3noc(C)n3)c21 [Compound 132, 1-{[2-methoxy-4-(4-methylpiperazine-1-carbonyl)phenyl]methyl}-N7-[(5-methyl-1,2,4-oxadiazo1-3-yl)methyl]-1H-pyrazolo[4,3-d]pyrimidine-5,7-diamine] |  | 95.1 nM | 10.9 nM |
| COc1cc(C(=O)N2CCN(CCO)CC2)ccc1Cn1ncc2nc(N)nc(NCc3noc(C)n3)c21 [Compound 133, 2-(4-{4-[(5-amino-7-{[(5-methyl-1,2,4-oxadiazo1-3-yl)methyl]amino}-1H-pyrazolo[4,3-d]pyrimidin-1-yl)methyl]-3-methoxybenzoyl}piperazin-1-yl)ethan-1-ol] |  | 1870 nM | 552 nM |
